Patent US20220218680A1, “TREATMENTS OF HEREDITARY ANGIOEDEMA” (KALVISTA PHARMACEUTICALS LIMITED, priority 2019, published 2022)

What was measured:
[1] = background, literature and labels; cited from earlier work
[2] = molecular target: PKa in DXS-activated plasma (Homo sapiens, UniProt P03952); test: Catalytic activity of PKa in dextran sulfate-activated plasma (inhibitor added before DXS); format: biochemical; conditions: read-out: IC50 plasma enzyme
Procedure: Catalytic activity of PKa in dextran sulfate-activated (DXS, Sigma; 10 μg/ml) plasma (1:4 diluted or undiluted, VisuCon-F control plasma, Affinity Biologicals Inc) was determined by the time-dependent hydrolysis of fluorogenic substrate.

[3] = molecular target: T1, Human plasma kallikrein (Protogen) (Homo sapiens, UniProt P03952); test: Plasma kallikrein inhibitory activity in vitro (purified enzyme, fluorogenic substrate); format: biochemical; conditions: 25° C., substrate H-DPro-Phe-Arg-AFC
T1 construct: purchased Protogen
T1 sequence (P03952 391-638 limits assumed): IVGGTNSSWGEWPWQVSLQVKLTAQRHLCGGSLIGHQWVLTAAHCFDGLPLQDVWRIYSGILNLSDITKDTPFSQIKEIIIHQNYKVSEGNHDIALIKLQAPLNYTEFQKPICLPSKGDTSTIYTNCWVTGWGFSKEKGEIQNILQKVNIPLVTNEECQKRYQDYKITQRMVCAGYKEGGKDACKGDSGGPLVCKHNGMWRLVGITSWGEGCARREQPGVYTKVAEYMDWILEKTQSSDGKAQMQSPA
T1 sequence (P03952 20-390 partner limits assumed): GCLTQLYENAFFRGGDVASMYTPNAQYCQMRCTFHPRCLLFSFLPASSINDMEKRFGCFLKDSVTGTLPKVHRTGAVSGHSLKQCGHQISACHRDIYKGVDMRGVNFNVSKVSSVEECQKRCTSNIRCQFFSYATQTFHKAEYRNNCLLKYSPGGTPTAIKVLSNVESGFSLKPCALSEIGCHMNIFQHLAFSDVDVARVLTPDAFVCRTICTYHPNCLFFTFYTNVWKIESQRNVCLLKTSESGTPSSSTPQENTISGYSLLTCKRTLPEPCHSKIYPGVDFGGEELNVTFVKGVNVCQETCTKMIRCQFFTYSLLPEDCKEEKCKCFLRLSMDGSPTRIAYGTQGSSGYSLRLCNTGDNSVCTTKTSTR
Procedure: Human plasma kallikrein (Protogen) was incubated at 25° C. with the fluorogenic substrate H-DPro-Phe-Arg-AFC and various concentrations of the test compound. Residual enzyme activity (initial rate of reaction) was determined by measuring the change in […] at 410 nm and the IC50 value for the test compound was determined.

purified PKa = purified PKa (Homo sapiens, UniProt P03952); test: Rate of formation of the enzyme-inhibitor complex (Kon); format: biochemical
Sequence of purified PKa (P03952 391-638 limits assumed): as the sequence (P03952 391-638 limits assumed) above
Sequence of purified PKa (P03952 20-390 partner limits assumed): as the sequence (P03952 20-390 partner limits assumed) above
Procedure: The rate of formation of the enzyme-inhibitor complex (Kon) was determined using purified PKa rapidly mixed with a solution containing fluorogenic substrate and a concentration range of inhibitor. The time-dependent establishment of inhibition was then used to calculate the rate of formation of the enzyme-inhibitor complex for each concentration of inhibitor. The Kon was calculated by plotting the rate of inhibition versus the inhibitor concentration. Data in Table 1 are presented in μM^−1 sec^−1.

[4] = molecular target: T2, plasma kallikrein in pre-activated undiluted human plasma (Homo sapiens, UniProt P03952); test: Inhibition of enzyme activity of pre-activated undiluted plasma (compound added after DXS); format: biochemical; conditions: added 3.5 minutes post DXS; compound 300, 1000, 3000 nM; C1-INH 3000 nM (FIG. 3B)
T2 construct: from tissue
T2 sequence (P03952 391-638 limits assumed): as the sequence (P03952 391-638 limits assumed) above
T2 sequence (P03952 20-390 partner limits assumed): as the sequence (P03952 20-390 partner limits assumed) above
Procedure: The ability of the compound to inhibit the enzyme activity of pre-activated plasma was assessed by addition of the compound after DXS stimulation. Aliquots of plasma (20 μL) were mixed with a 2.5 μL solution containing […] fluorogenic substrate (H-DPro-Phe-Arg-AFC) and a 2.5 μL solution of dextran sulphate (DXS; 100 μg/mL) which acted as an activator of the plasma kallikrein-kinin pathway. Enzyme activity was immediately measured by monitoring the accumulation of fluorescence liberated from the substrate by substrate cleavage over 16 minutes. At 3.5 minutes post DXS addition 5 μl of inhibitors or water control are were added into each well. The compound was tested at concentrations of 300, 1000 and 3000 nM. C1-INH at a concentration of 3000 nM and vehicle controls were also included.

[5] = tested on: HK cleavage by PKa in undiluted citrated human plasma; test: Protection of HK from PKa-mediated cleavage in DXS-stimulated HAE and control plasma (WES immunoassay); format: biochemical
Procedure: High molecular weight kininogen (HK) cleavage in undiluted citrated human plasma was induced by contact system activation with dextran sulfate (DXS, Sigma #31395-10G; 6.25 μg/ml) on wet ice. […] HAE plasma was obtained from HAE subjects (n=6) and C1-inhibitor deficiency was confirmed by western blotting. Protection of HK from PKa mediated cleavage in DXS-stimulated whole undiluted plasma was then determined by two methods; traditional western blotting and a semi-automated capillary-based immunoassay.
Preparation of samples: Combine one part 5× fluorescent master mix with four parts of the 1:200 plasma sample. Vortex to mix. Heat the samples+fluorescent master mix and the biotinylated ladder at 95° C. for 5 minutes, vortex, and load onto the WES plate. Monoclonal anti-human HK antibody was used for this chemiluminescence-based detection method using the Wes System (ProteinSimple).
Analysis: Collect the peak area measurement obtained in the Compass software (cbz file) for the full-length HK molecular weight of the respective time-point sample with DXS-induced activation. The peak area is defined as the area calculated for the spectral peak profile for HK. To measure the plasma kallikrein inhibition by the compound, the percent full-length HK detected was calculated.

[6] = tested on: HK cleavage by PKa in undiluted plasma; test: DXS-activated cleavage of HK in undiluted plasma (immunoblot); format: biochemical; conditions: 300 nM PKa inhibitor, 20 min incubation with DXS
Procedure: DXS-activated cleavage of HK in undiluted plasma was performed in the absence or presence of 300 nM PKa inhibitor and quantified by SDS-PAGE gel electrophoresis, using 7.5% Criterion TGX Precast gels (Biorad). Transfer was made onto Immunobilon-FL PVDF membrane. Image analysis was done using the LICOR imaging system. Mouse monoclonal anti-HK antibody (MAB15692, R&D systems) was used for traditional immunoblotting. Data presented as % of HK remaining after 20 min incubation with DXS compared to HK levels in unactivated plasma (Table 1).

[7] = Phase 1 multiple dose study: safety, tolerability and ECG; format: in vivo, human; conditions: 3 x 600 mg every 8, 4 or 2 hours, total 1800 mg, healthy adults
Procedure: This is a phase 1, double-blind, placebo-controlled, multiple-dose, multiple-cohort study to evaluate safety and tolerability of the compound as well as of the ECG effects of the compound formulated as 100 mg Film Coated Tablets in healthy adult male and female subjects.
During the study, oral doses of 600 mg of the compound as Film Coated Tablets (six 100 mg tablets) or 6 matching placebo tablets will be administered once every 8 hours (Cohort 1) every 4 hours (Cohort 2), or every 2 hours (Cohort 3 and 4) to healthy adult male and female subjects up to a total dose of 1800 mg. In Cohorts 1, 2 and 3, 6 subjects will receive the compound as 100 mg Film Coated Tablets and 2 subjects will receive the placebo for a total of 8 subjects per cohort. In Cohort 4, 12 subjects will receive the compound as 100 mg Film Coated Tablets and 6 subjects will receive the placebo for a total of 18 subjects.
A Holter monitor will be attached to each subject in order to continuously record ECGs. The monitor will be attached 1 hour before the first dose and will remain attached until after the final blood sample collection. The electrodes for the Holter monitor will be checked by a member of the clinic staff at appropriate intervals to ensure they are attached.

[8] = tested on: plasma prekallikrein (PPK) cleavage; test: Phase 1 SAD: ex vivo DXS-stimulated cleavage of plasma prekallikrein, Wes immunoassay; format: in vivo, human; conditions: 600 mg oral capsules, up to 12 hrs post-dose
Excerpt: (§1) DXS-stimulated cleavage of plasma prekallikrein and Factor XII (FXII) were quantified by capillary-based immunoassay on the Wes System (ProteinSimple) analogously.

Plasma Kallikrein = molecular target: T3, Plasma Kallikrein (Homo sapiens, UniProt P03952); test: Phase 1 SAD / food effect: ex vivo PKa catalytic activity in DXS-stimulated undiluted plasma
T3 construct: PD measurements were determined in dextran sulfate (DXS) stimulated undiluted plasma using a fluorogenic enzyme assay; from tissue; host or cells: undiluted plasma of healthy male volunteers after oral dosing, stimulated ex vivo with dextran sulfate
T3 sequence (P03952 391-638 limits assumed): as the sequence (P03952 391-638 limits assumed) above
T3 sequence (P03952 20-390 partner limits assumed): as the sequence (P03952 20-390 partner limits assumed) above
Procedure: (§2) PD measurements were determined in dextran sulfate (DXS) stimulated undiluted plasma using a fluorogenic enzyme assay and capillary based HK cleavage immunoassay.
The time until appearance of detectable amidolytic enzyme activity in DXS-stimulated plasma (lag time) was calculated from the catalytic activity assay. The detection sensitivity of the rate of catalytic activity in plasma based on using a Spark (Tecan) fluorimeter is a fluorescence increase to reach 1ΔF unit/sec.

[9] = Phase 2 study Part 1: pharmacokinetics in HAE patients; format: in vivo; conditions: human, plasma, 600 mg single oral dose, n = 27, preliminary, read-out: Cmax Mean (95% CI)
Procedure: In Part 1, subjects will receive a single oral dose of 600 mg of the compound to investigate the safety, PK and PD of the compound during the intercritical period between HAE attacks.
Part 1: Blood samples for PK and PD measurements will be collected at the following timepoints: Pre-dose (0 h), 15 min, 30 min, 45 min, 1 h, 1.5 h, 2 h, 3 h, and 4 h post-dose. Vital signs (systolic blood pressure [SBP], diastolic blood pressure [DBP], pulse rate [PR], respiratory rate [RR] and body temperature) will be measured at pre-dose (0 h), 1 h, and 4 h post-dose. Samples for post-treatment safety laboratory assessments will be taken with the 4 h PK/PD samples.
Non-compartmental PK parameters will include maximum concentration in plasma (Cmax), time to reach Cmax in plasma (tmax), and area under the curve from time 0 to last sample (AUC0-t). Compartmental PK modelling will describe the PK of the compound and generate underlying Cmax, tmax, AUC, apparent clearance (CL/F), apparent volume of distribution (Vd/F) and estimated terminal elimination half-life (t½).
The PK parameters of the compound will be determined from the individual concentration versus time data using Phoenix WinNonlin. In case of a deviation from the theoretical time, the actual time of blood sample will be used in the calculation of the derived PK parameters. […]

HK cleavage = test: Phase 1 SAD: ex vivo DXS-stimulated HK cleavage, capillary-based immunoassay (Wes); format: in vivo, human
Procedure: as §2
DXS-stimulated cleavage of HK, in undiluted plasma was quantified by capillary-based immunoassay on the Wes System (ProteinSimple) using monoclonal anti-HK antibody and chemiluminescence-based detection. Plasma kallikrein mediated HK cleavage in undiluted citrated human plasma was induced by contact system activation with DXS (6.25 μg/ml) at 4° C. in selected samples from the SAD phase.

[10] = Phase 1 single ascending dose study: plasma pharmacokinetics (LC MS/MS); format: in vivo, human; conditions: oral capsule, fasted, 5 mg to 600 mg
Procedure: (§3) This study was a randomized, double-blind, placebo-controlled single ascending dose (SAD) and crossover studies for food effect and capsule/tablet formulations.
Samples for pharmacokinetic (PK) and PD assessment were taken at repeated intervals over 48 hours.
Plasma samples used for PK assessment were analysed using a validated liquid chromatography tandem mass spectrometry (LC MS/MS) method.

[11] = tested on: Factor XII (FXII) cleavage / FXIIa generation; test: Phase 1 SAD: ex vivo DXS-stimulated generation of FXIIa, Wes immunoassay; format: in vivo, human; conditions: 600 mg oral capsules, up to 12 hrs post-dose
Excerpt: as §1

[12] = Plasma free fraction by Rapid Equilibrium Dialysis; format: in vitro ADME; conditions: 5 μM in neat human plasma, dialysed 5 hrs at 37° C.
Procedure: Plasma free fraction was determined using “Rapid Equilibrium Dialysis” system (Thermo Scientific), test compounds were prepared at 5 μM in neat human plasma and dialysed against phosphate buffer for 5 hrs at 37° C. Quantification of the compound partitioned in two chambers of the dialysis device was performed via LCMS/MS. Fraction of compound unbound to plasma proteins presented as % of total.

[13] = Phase 1 single ascending dose study: safety and tolerability; format: in vivo, human; conditions: phase I trial, healthy males, 5-600 mg oral
Excerpt: as §3

Sequence of PKa in DXS-activated plasma (P03952 391-638 limits assumed): as the sequence (P03952 391-638 limits assumed) above
Sequence of PKa in DXS-activated plasma (P03952 20-390 partner limits assumed): as the sequence (P03952 20-390 partner limits assumed) above

Molecule: Ecallantide
- reported adverse reactions / risks [1]: risk of anaphylactic reactions

Molecule: C1-INH: C1 inhibitor (Sigma Cat #E0518), used as a therapeutic benchmark for HAE [Compound C1-INH]
- IC50 [2]: 1700 nM
- IC50 [3]: 50 nM
- Kon (purified PKa): 40000 M⁻¹ s⁻¹
- inhibition of enzyme activity after activation of plasma [4]: slower action

Molecule: COCc1nn(Cc2ccc(Cn3ccccc3=O)cc2)cc1C(=O)NCc1nccc(OC)c1F [compound of Formula A, N-[(3-fluoro-4-methoxypyridin-2-yl)methyl]-3-(methoxymethyl)-1-({4-[(2-oxopyridin-1-yl)methyl]phenyl}methyl)pyrazole-4-carboxamide]
- protection against HK cleavage ([5]; HAE plasma stimulated with dextran sulfate): dose dependent protection against HK cleavage
- protection against HK cleavage ([5]; healthy control plasma stimulated with dextran sulfate): dose dependent protection against HK cleavage
- HK protection (% of HK remaining vs unactivated plasma) [6]: 85%
- effects on the studied ECG parameters [7]: No clinically relevant effects
- serious adverse events [7]: No serious adverse events
- severity of reported adverse events [7]: mild
- effect on PPK cleavage in DXS-activated plasma [8]: reduces PPK cleavage
- lag time (time until appearance of catalytic activity during contact system activation) (Plasma Kallikrein; 600 mg dose, tablet formulation): increases the time until appearance of catalytic activity
- food effect on the pharmacodynamic (PD) profile (Plasma Kallikrein; 600 mg tablet, fed vs fasted): no significant food-effect
- Cmax [9]: 5910 ng/mL
- effect on HK cleavage in DXS-activated plasma (HK cleavage; 600 mg oral capsules, up to 12 hrs post-dose): reduces HK cleavage
- duration of protection of HK from DXS-activated cleavage in undiluted plasma (HK cleavage; single 600 mg dose): at least 10 hr
- plasma exposure [10]: rapid and dose-dependent plasma exposure
- effect on generation of FXIIa in DXS-activated plasma [11]: reduces the generation of FXIIa
- fraction unbound at 5 h, 5 μM [12]: 0.25
- serious adverse events [13]: No serious adverse events
- tolerability [13]: no tolerability signals

Molecule: N#Cc1cccc([C@@H](NCC2CC2)c2ccc(F)c(NC(=O)c3cc(C(F)(F)F)nn3-c3cccc(CN)c3)c2)c1 [Berotralstat, reference compound]
- reported adverse reactions / risks [1]: more gastrointestinal adverse effects

B1: lanadelumab: recombinant fully human IgG1 kappa light chain monoclonal antibody, active substance of Takhzyro (antibody, chains of the INN, looked up, V domains shown)
VH: EVQLLESGGGLVQPGGSLRLSCAASGFTFSHYIMMWVRQAPGKGLEWVSGIYSSGGITVYADSVKGRFTISRDNSKNTLYLQMNSLRAEDTAVYYCAYRRIGVPRRDEFDIWGQGTMVTVSS
VL: DIQMTQSPSTLSASVGDRVTITCRASQSISSWLAWYQQKPGKAPKLLIYKASTLESGVPSRFSGSGSGTEFTLTISSLQPDDFATYYCQQYNTYWTFGQGTKVEIK
- reported adverse reactions / risks [1]: hypersensitivity, injection site pain, injection site erythema, and injection site bruising
